According to ChEMBL document CHEMBL4219115, “Synthesis and evaluation of 4',5'-dihydrospiro[piperidine-4,7'-thieno[2,3-c]pyran] analogues against both active and dormant Mycobacterium tuberculosis” (Bioorg Med Chem, 2018):
≈ marks a conversion by molar mass, not a printed value.

Legend:
[1] = tested on: Mycobacterium tuberculosis; experiment: Antimycobacterial activity against active form of Mycobacterium tuberculosis H37Rv measured after 7 days by alamar blue assay; type: functional; conditions: 168 h
[2] = tested on: Mycobacterium tuberculosis; experiment: Antimycobacterial activity against nutrient starved dormant form of Mycobacterium tuberculosis H37Rv assessed as log reduction in bacterial count at 10 ug/ml measured after 7 days by […] relative to control; type: functional
[3] = target: T1, L-lysine-epsilon aminotransferase (Mycobacterium tuberculosis, UniProt P9WQ77); experiment: Inhibition of Mycobacterium tuberculosis LAT using L-lysine and alpha-ketoglutaric acid as substrate by spectrophotometric analysis
T1 sequence (P9WQ77 whole entry): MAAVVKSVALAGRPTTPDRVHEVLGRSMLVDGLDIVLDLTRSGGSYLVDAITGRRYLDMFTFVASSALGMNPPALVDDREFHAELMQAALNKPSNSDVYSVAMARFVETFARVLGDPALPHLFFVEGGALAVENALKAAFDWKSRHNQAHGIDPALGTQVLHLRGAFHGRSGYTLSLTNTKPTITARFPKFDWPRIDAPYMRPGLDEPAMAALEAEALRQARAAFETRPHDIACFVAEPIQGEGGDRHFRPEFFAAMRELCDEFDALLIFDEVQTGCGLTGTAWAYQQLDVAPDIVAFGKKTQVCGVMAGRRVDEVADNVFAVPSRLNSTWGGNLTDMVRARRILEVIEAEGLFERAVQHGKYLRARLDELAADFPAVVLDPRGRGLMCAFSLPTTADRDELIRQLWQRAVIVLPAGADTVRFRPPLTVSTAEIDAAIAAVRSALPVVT

RAW264.7 = experiment: Cytotoxicity against mouse RAW264.7 cells assessed as reduction in cell viability at 50 ug/ml after 48 hrs by MTT assay; type: cell-based; conditions: raw264.7, 48 h
[4] = tested on: Mycobacterium tuberculosis; experiment: Antimycobacterial activity against Mycobacterium tuberculosis H37Rv measured after 6 days by resazurin assay; type: functional; conditions: 144 h

Row | Structure (SMILES) | MIC [1] | Activity (RAW264.7) | also measured
1 | COc1ccc(CN2CCC3(CC2)OCCc2ccsc23)cc1 | 23.1 µM (≈ 7.62 µg/mL) |  | 
2 | Clc1ccc(CN2CCC3(CC2)OCCc2ccsc23)cc1 | 9.35 µM (≈ 3.12 µg/mL) | 26.54% | log(activity) [2]: 2.4; IC50 [3]: 6.83 µM
3 | c1ccc(CN2CCC3(CC2)OCCc2ccsc23)cc1 | 83.5 µM (≈ 25 µg/mL) |  | 
4 | O=C(c1ccccc1)N1CCC2(CC1)OCCc1ccsc12 | 79.8 µM (≈ 25 µg/mL) |  | 
5 | NNC(=O)c1ccncc1 [ISONIAZID] | 0.66 µM (≈ 0.0905 µg/mL) |  | log(activity) [2]: 1.7
6 | Cc1ccc(C(=O)N2CCC3(CC2)OCCc2ccsc23)cc1 | 19.1 µM (≈ 6.25 µg/mL) | 23.16% | 
7 | O=S(=O)(c1ccc(F)cc1)N1CCC2(CC1)OCCc1ccsc12 | 34 µM (≈ 12.5 µg/mL) |  | 
8 | O=C(c1ccc(Cl)cc1Cl)N1CCC2(CC1)OCCc1ccsc12 | 32.7 µM (≈ 12.5 µg/mL) |  | 
9 | COc1ccc(C(=O)N2CCC3(CC2)OCCc2ccsc23)cc1 | 9.09 µM (≈ 3.12 µg/mL) | 14.59% | 
10 | O=S(=O)(c1ccc(F)cc1F)N1CCC2(CC1)OCCc1ccsc12 | 16.2 µM (≈ 6.25 µg/mL) | 31.08% | 
11 | O=S(=O)(c1ccc(Cl)cc1)N1CCC2(CC1)OCCc1ccsc12 | 65.1 µM (≈ 25 µg/mL) |  | 
12 | CO[C@H]1/C=C/O[C@@]2(C)Oc3c(C)c(O)c4c(O)c(c(/C=N/N5CCN(C)CC5)c(O)c4c3C2=O)NC(=O)/C(C)=C\C=C\[C@H](C)[C@H](O)[C@@H](C)[C@@H](O)[C@@H](C)[C@H](OC(C)=O)[C@@H]1C [RIFAMPIN] |  |  | log(activity) [2]: 2
13 | O=S(=O)(c1ccccc1)N1CCC2(CC1)OCCc1ccsc12 | 71.5 µM (≈ 25 µg/mL) |  | 
14 | Clc1ccc(CN2CCC3(CC2)OCCc2ccsc23)c(Cl)c1 | 33.9 µM (≈ 12.5 µg/mL) |  | 
15 | O=C(c1ccc(F)cc1)N1CCC2(CC1)OCCc1ccsc12 | 18.9 µM (≈ 6.25 µg/mL) | 18.98% | 
16 | Cc1ccc(S(=O)(=O)N2CCC3(CC2)OCCc2ccsc23)cc1 | 8.59 µM (≈ 3.12 µg/mL) | 22.16% | 
17 | CC1COc2c(N3CCN(C)CC3)c(F)cc3c(=O)c(C(=O)O)cn1c23 (configuration not stated) [OFLOXACIN] | 2.16 µM (≈ 0.781 µg/mL) |  | 
18 | O=C(c1ccc(F)cc1F)N1CCC2(CC1)OCCc1ccsc12 | 8.94 µM (≈ 3.12 µg/mL) | 34.06% | log(activity) [2]: 2.7; IC50 [3]: 3.48 µM
19 | c1cc2c(s1)CCOC21CCN(Cc2ccc3c(c2)OCCO3)CC1 |  |  | MIC [4]: 0.38 µM (≈ 0.136 µg/mL)
20 | O=C(c1ccc(Cl)cc1)N1CCC2(CC1)OCCc1ccsc12 | 71.9 µM (≈ 25 µg/mL) |  | 
21 | Cc1ccc(CN2CCC3(CC2)OCCc2ccsc23)cc1 | 79.8 µM (≈ 25 µg/mL) |  | 
22 | Fc1ccc(CN2CCC3(CC2)OCCc2ccsc23)c(F)c1 | 37.3 µM (≈ 12.5 µg/mL) |  | 
23 | COc1ccc(S(=O)(=O)N2CCC3(CC2)OCCc2ccsc23)cc1 | 8.23 µM (≈ 3.12 µg/mL) | 12.32% | log(activity) [2]: 2.8; IC50 [3]: 1.04 µM
24 | CC[C@@H](CO)NCCN[C@@H](CC)CO [ETHAMBUTOL] | 9.84 µM (≈ 2.01 µg/mL) |  | 
25 | O=S(=O)(c1ccc(Cl)cc1Cl)N1CCC2(CC1)OCCc1ccsc12 | 29.9 µM (≈ 12.5 µg/mL) |  | 
26 | Fc1ccc(CN2CCC3(CC2)OCCc2ccsc23)cc1 | 19.7 µM (≈ 6.25 µg/mL) | 21.67% | 
